Source: patent publication US20220073536A1 (Rigel Pharmaceuticals, Inc., priority 2003, published 2022)

Key:
[1] = tested on: cultured human mast cells (CHMC); test: CHMC low cell density ionomycin activation: tryptase assay; type: cell-based; conditions: low cell density CHMC, tryptase, 3 pt, read-out: LD Tryptase, CHMC, Iono, 3 pt
[2] = tested on: cultured human mast cells (CHMC); test: CHMC low cell density IgE activation: tryptase assay; type: cell-based; conditions: low cell density CHMC, IgE activation, tryptase
Procedure, shortened: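 CHMC were seeded at 1000–1500 cells/well in MT buffer and incubated 1 hr at 37 °C. They were then stimulated with anti-IgE for 30 min at 37 °C, with unstimulated wells as controls. Released tryptase in the supernatant was measured with a fluorogenic substrate after 30 min at room temperature.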

[3] = Homo sapiens, Mast cell, 3 pt, read-out: LD Tryptase, CHMC, IgE, 3 pt
[4] = 3 pt, read-out: LD Tryptase, CHMC, IgE, 3 pt
[5] = Homo sapiens, Mast cell, 8 pt, read-out: LD Tryptase, CHMC, IgE, 8 pt
[6] = 8 pt, read-out: LD Tryptase, CHMC, IgE, 8 pt

Row | SMILES | IC50 ([1]; Homo sapiens, Mast cell) | IC50 [2, 3] | IC50 [2, 5] | IC50 [2, 6] | IC50 [1] | IC50 [2, 4]
1 | Fc1cnc(Nc2ccc(N3CCOCC3)cc2)nc1NC1CCCCC1 [Compound 1162, N4-Cyclohexyl-5-fluoro-N2-(4-morpholinophenyl)-2,4-pyrimidinediamine] | > 10 µM | < 10 µM | – | – | – | –
2 | CC(=O)N1CCN(c2ccc(Nc3ncc(F)c(NC4CCCCC4)n3)cc2)CC1 [Compound 1163, N2-[4-(4-Acetylpiperazino)phenyl]-N4-cyclohexyl-5-fluoro-2,4-pyrimidinediamine] | > 10 µM | < 10 µM | – | – | – | –
3 | Fc1cnc(Nc2cccc(N3CCOCC3)c2)nc1NC1CCCCC1 [Compound 1166, N4-Cyclohexyl-5-fluoro-N2-(3-morpholinophenyl)-2,4-pyrimidinediamine] | > 10 µM | < 10 µM | – | – | – | –
4 | CC(=O)N1CCN(c2cccc(Nc3ncc(F)c(NC4CCCCC4)n3)c2)CC1 [Compound 1167, N2-[3-(4-Acetylpiperazino)phenyl]-N4-cyclohexyl-5-fluoro-2,4-pyrimidinediamine] | > 10 µM | < 10 µM | – | – | – | –
5 | O=C(Nc1ccc(Nc2ncc(F)c(NC3CCCC3)n2)cc1)c1ccccc1 [Compound 1170, N2-(4-Benzamidophenyl)-N4-cyclopentyl-5-fluoro-2,4-pyrimidinediamine] | > 10 µM | < 10 µM | – | – | – | –
6 | COc1cc(C(N)=O)c(Nc2ncc(F)c(NC3CCCC3)n2)cc1OCc1ccccc1 [Compound 1171, N2-(2-Aminocarbonyl-5-benzoxy-4-methoxyphenyl)-N4-cyclopentyl-5-fluoro-2,4-pyrimidinediamine] | > 10 µM | < 10 µM | – | – | – | –
7 | Fc1cnc(Nc2cccc(NC3=NCCN3)c2)nc1NC1CCCC1 [Compound 1173, N4-Cyclopentyl-5-fluoro-N2-[3-(N-2-imidazolin-2-yl)aminophenyl]-2,4-pyrimidinediamine] | > 10 µM | > 10 µM | – | – | – | –
8 | CN(c1nc(Nc2cccc(-c3ncco3)c2)ncc1F)C1CCC1 [Compound 1179, N4-Cyclobutyl-5-fluoro-N4-methyl-N2-[3-(oxazol-2-yl)phenyl]-2,4-pyrimidinediamine] | > 10 µM | < 10 µM | – | – | – | –
9 | Fc1cnc(Nc2ccc(N3CCOCC3)cc2)nc1N[C@H]1CCN(Cc2ccccc2)C1 [Compound 1180, (S)-N4-(1 -Benzylpyrrolidin-3-yl)-5-fluoro-N2-(4-morpholinophenyl)-2,4-pyrimidinediamine] | > 10 µM | < 10 µM | – | – | – | –
10 | CC(=O)N1CCN(c2ccc(Nc3ncc(F)c(N[C@H]4CCN(Cc5ccccc5)C4)n3)cc2)CC1 [Compound 1181, (S)-N2-[4-(4-Acetylpiperazino)phenyl]-N4-(1-benzylpyrrolidin-3-yl)-5-fluoro-2,4-pyrimidinediamine] | > 10 µM | < 10 µM | – | – | – | –
11 | CN1CCN(c2ccc(Nc3ncc(F)c(N[C@H]4CCN(Cc5ccccc5)C4)n3)cc2)CC1 [Compound 1182] | > 10 µM | > 10 µM | – | – | – | –
12 | CCOC(=O)N1CCN(c2ccc(Nc3ncc(F)c(N[C@H]4CCN(Cc5ccccc5)C4)n3)cc2)CC1 [Compound 1183, (S)-N4-(1-Benzylpyrrolidin-3-yl)-N2-[4-(4-ethoxycarbonylpiperazino)phenyl]-5-fluoro-2,4-pyrimidinediamine] | > 10 µM | < 10 µM | – | – | – | –
13 | Fc1cnc(Nc2cccc(N3CCOCC3)c2)nc1N[C@H]1CCN(Cc2ccccc2)C1 [Compound 1184] | > 10 µM | < 10 µM | – | – | – | –
14 | CC(=O)N1CCN(c2cccc(Nc3ncc(F)c(N[C@H]4CCN(Cc5ccccc5)C4)n3)c2)CC1 [Compound 1185, (S)-N2-[3-(4-Acetylpiperazino)phenyl]-N4-(benzylpyrrolidin-3-yl)-5-fluoro-2,4-pyrimidinediamine] | – | – | – | – | > 10 µM | < 10 µM
15 | CCOC(=O)N1CCN(c2cccc(Nc3ncc(F)c(N[C@H]4CCN(Cc5ccccc5)C4)n3)c2)CC1 [Compound 1187, (S)-N4-(1-Benzylpyrrolidin-3-yl)-N2-[3-(4-ethoxycarbonylpiperazino)phenyl]-5-fluoro-2,4-pyrimidinediamine] | > 10 µM | < 10 µM | – | – | – | –
16 | C[C@@H]1Oc2ccc(Nc3nc(Nc4cccc(-c5ncco5)c4)ncc3F)cc2NC1=O [Compound 1282] | > 10 µM | < 10 µM | < 10 µM | – | – | –
17 | NC1CCOc2ccc(Nc3nc(Nc4cccc(-c5ncco5)c4)ncc3F)cc21 (stereo not shown) [Compound 1285] | > 10 µM | < 10 µM | < 10 µM | – | – | –
18 | CC(C)(C)OC(=O)NC1CCOc2ccc(Nc3nc(Nc4cccc(-c5cnco5)c4)ncc3F)cc21 (stereo not shown) [Compound 1287, N4-(4-N-tert-Butoxycarbonylamino-3,4-dihydro-2H-1-benzopyran-6-yl)-5-fluoro-N2-[3-(oxazol-5-yl)phenyl]-2,4-pyrimidinediamine] | – | – | – | – | > 10 µM | < 10 µM
19 | CC(C)(C)OC(=O)NC1CCOc2ccc(Nc3nc(Nc4ccc(-c5cnco5)cc4)ncc3F)cc21 (stereo not shown) [Compound 1288, N4-(4-N-tert-Butoxycarbonylamino-3,4-dihydro-2H-1-benzopyran-6-yl)-5-fluoro-N2-[4-(oxazol-5-yl)phenyl]-2,4-pyrimidinediamine] | – | – | – | < 10 µM | < 10 µM | < 10 µM
20 | CC(C)(C)OC(=O)NC1CCOc2ccc(Nc3nc(Nc4ccc(-c5ncco5)cc4)ncc3F)cc21 (stereo not shown) [Compound 1289, N4-(4-N-tert-Butoxycarbonylamino-3,4-dihydro-2H-1-benzopyran-6-yl)-5-fluoro-N2-[4-(oxazol-2-yl)phenyl]-2,4-pyrimidinediamine] | – | – | – | – | < 10 µM | < 10 µM
21 | OC1CCOc2ccc(Nc3nc(Nc4ccc(-c5ncco5)cc4)ncc3F)cc21 (stereo not shown) [Compound 1291, 5-Fluoro-N4-(4-hydroxy-3,4-dihydro-2H-1-benzopyran-6-yl)-N2-[4-(oxazol-2-yl)phenyl]-2,4-pyrimidinediamine] | > 10 µM | < 10 µM | < 10 µM | – | – | –
22 | CNC(=O)CNC(=O)c1ccc(Nc2ncc(F)c(Nc3ccc4c(c3)NC(=O)C(C)(C)O4)n2)cc1 [Compound 1295, N4-(2,2-Dimethyl-3-oxo-4H-benz[1,4]oxazin-6-yl)-5-fluoro-N2-[4-[N-(N-methylamino)carbonylmethylene]aminocarbonylphenyl]-2,4-pyrimidinediamine] | – | – | – | < 10 µM | > 10 µM | < 10 µM
23 | CNC(=O)CNC(=O)c1ccc(Nc2ncc(F)c(Nc3ccc4c(c3)NC(=O)[C@H](C)O4)n2)cc1 [Compound 1296, (S)-5-Fluoro-N2-[4-[N-(N-methylamino)carbonylmethylene]aminocarbonylphenyl]-N4-(2-methyl-3-oxo-2H,4H-benz[1,4]oxazin-6-yl)-2,4-pyrimidinediamine] | – | – | – | < 10 µM | > 10 µM | < 10 µM

Now from value to compound, other results behind:

Row | IC50 ([1]; Homo sapiens, Mast cell) | IC50 [2, 3] | IC50 [2, 5] | IC50 [2, 6] | SMILES | IC50 [1] | IC50 [2, 4]
24 | < 10 µM | < 10 µM | – | – | CCOC(=O)N1CCN(c2ccc(Nc3ncc(F)c(NC4CCCCC4)n3)cc2)CC1 [Compound 1165, N4-Cyclohexyl-N2-[4-(4-ethoxycarbonylpiperazino)phenyl]-5-fluoro-2,4-pyrimidinediamine] | – | –
25 | > 10 µM | < 10 µM | – | – | CN1CCN(c2cccc(Nc3ncc(F)c(NC4CCCCC4)n3)c2)CC1 [Compound 1168, N4-Cyclohexyl-5-fluoro-N2-[3-(4-methylpiperazino)phenyl]-2,4-pyrimidinediamine] | – | –
26 | > 10 µM | < 10 µM | – | – | CCOC(=O)N1CCN(c2cccc(Nc3ncc(F)c(NC4CCCCC4)n3)c2)CC1 [Compound 1169, N4-Cyclohexyl-N2-[3-(4-ethoxycarbonylpiperazino)phenyl]-5-fluoro-2,4-pyrimidinediamine] | – | –
27 | > 10 µM | < 10 µM | – | – | CC(=O)N(C)c1ccc(Nc2ncc(F)c(NC3CCCC3)n2)cc1 [Compound 1172, N2-[4-(N-Acetyl-N-methylamino)phenyl]-N4-cyclopentyl-5-fluoro-2,4-pyrimidinediamine] | – | –
28 | > 10 µM | < 10 µM | – | – | COc1cc(C(N)=O)c(Nc2ncc(F)c(NC3CCCCC3)n2)cc1OCc1ccccc1 [Compound 1175, N2-(2-Aminocarbonyl-5-benzoxy-4-methoxyphenyl)-N4-cyclohexyl-5-fluoro-2,4-pyrimidinediamine] | – | –
29 | > 10 µM | < 10 µM | – | – | CC(=O)N(C)c1ccc(Nc2ncc(F)c(NC3CCCCC3)n2)cc1 [Compound 1176, N2-[4-(N-Acetyl-N-methylamino)phenyl]-N4-cyclohexyl-5-fluoro-2,4-pyrimidinediamine] | – | –
30 | > 10 µM | > 10 µM | – | – | Fc1cnc(Nc2cccc(NC3=NCCN3)c2)nc1NC1CCCCC1 [Compound 1177] | – | –
31 | > 10 µM | > 10 µM | – | – | Fc1cnc(Nc2cccc(-c3ncco3)c2)nc1Nc1cccc(-c2ncco2)c1 [Compound 1178, N2,N4-Bis[3-(oxazol-2-yl)phenyl]-5-fluoro-2,4-pyrimidinediamine] | – | –
32 | > 10 µM | < 10 µM | – | – | CN1CCN(c2cccc(Nc3ncc(F)c(N[C@H]4CCN(Cc5ccccc5)C4)n3)c2)CC1 [Compound 1186] | – | –
33 | > 10 µM | < 10 µM | < 10 µM | – | CC1(C)Oc2ccc(Nc3nc(Nc4cccc(-c5ncco5)c4)ncc3F)cc2NC1=O [Compound 1281] | – | –
34 | > 10 µM | < 10 µM | < 10 µM | – | C[C@H]1Oc2ccc(Nc3nc(Nc4cccc(-c5ncco5)c4)ncc3F)cc2NC1=O [Compound 1283] | – | –
35 | > 10 µM | < 10 µM | < 10 µM | – | O=C1Nc2cc(Nc3nc(Nc4cccc(-c5ncco5)c4)ncc3F)ccc2OC1(F)F [Compound 1284] | – | –
